Test results as given in paper PMC8714961, “Involvement of P-gp on Reversing Multidrug Resistance Effects of 23-Hydroxybetulinic Acid on Chemotherapeutic Agents” (Frontiers in Pharmacology, 2021).

Columns and labels:
[1] = tested on: MCF-7/ADR cells; assay: Hoechst assay (apoptosis); type: cell-based, human; details: vs control group
Procedure: MCF-7/ADR cells were collected and cultured at the density of 2.0 × 10^5/well in 24-well plates. […] The cells were dyed with Hoechst 33,342 (Beyotime, Shanghai, China) in the dark at 37°C for 30 min after washing with phosphate buffered saline (PBS). The morphological changes of the nucleus were evaluated by a fluorescence microscope.

[2] = tested on: MCF-7/S cells; assay: Trypan blue exclusion assay, MCF-7/S cells; type: cell-based; details: 0.2, 2 and 20 µM with ADR 0.08 µM or VCR 0.5 µM, 48 h
Procedure: (§1) MCF-7 (human breast carcinoma cells) and MCF-7/ADR (P-gp-overexpressing derivative cells) cell lines were obtained from Blood Diseases Hospital, Chinese Academy of Medica ([Shi et al., 2011]). The cells were routinely maintained in RPMI 1640 with 10% heat-inactivated fetal bovine serum (FBS), 1% non-essential amino acid solution, 0.1 mg/ml streptomycin, and 100 units/ml penicillin. Caco-2 cells were purchased from American Type Culture Collection (ATCC, Rockville, MD, United States). Vector-MDCK and MDR1-MDCK cells were purchased from PharmaResources Co., Ltd. (China). Both Caco-2 and MDCK cells were maintained at Dulbecco’s modified Eagle’s medium (DMEM) with 10% FBS, 1% non-essential amino acid solution, 0.1 mg/ml streptomycin, and 100 units/ml penicillin. MCF-7/ADR cells were treated with […] and were cultured in ADR-free medium for more than 14 days before the experiment. All cells were cultured at 37°C in a humidified atmosphere of 5% CO2.
(§2) Trypan blue exclusion assay was used to measure the viability of cells to compounds. Briefly, MCF-7/sensitive (MCF-7/S) and MCF-7/ADR cells were diluted into the density of 0.5×10^4 cells/ml, then cells (1 ml) were seeded in culture plates. […]. The viable and dead cells (stained in blue) were counted by haemacytometer.

[3] = tested on: MCF-7/S cells; assay: ADR/VCR accumulation study in MCF-7/S cells; details: ADR/VCR 5 µM, test compound 0.2, 2, 20 µM, 1 h
Procedure: MCF-7 cells (1×10^5/Well) were incubated in 24-well plates. […] After 1 h incubation, the compound solution was aspirated to stop further accumulation, and the monolayers were rinsed with cold Hank’s solution for three times. The drug content was detected by lysing the cells with ultrasound, and then the single well lysate was transferred to a plastic EP tube for further analysis. The protein concentration of the cells was measured using Coomassie brilliant blue.

[4] = tested on: MCF-7/ADR cells; assay: Trypan blue exclusion assay, MCF-7/ADR cells; type: cell-based
Procedure: as §1, §2

[5] = tested on: MDCK-MDR1 cell monolayers; assay: MDCK-MDR1 transport of BA/23-HBA with or without verapamil; details: +VER (verapamil 20 µM) vs without VER
Procedure: (§3) Briefly, MDCK-MDR1 cells (1×10^5/Well) were seeded onto […] pore-size transwell inserts (Millipore, MA, United States) in 24-well plates. Cells were cultured for 5–7 days, when the transepithelial electrical resistance (TEER) values were 120–240 Ω cm^2.
(§4) The cells were rinsed with warmed Hank’s balanced salt solution (HBSS), and the inserts were incubated for 20 min at 37°C. […] Aliquots (50 µl) were taken from the receiver compartment at intervals of 30, 60, 90, and 120 min and replaced with fresh buffer. In the study, verapamil (VER), known P-gp inhibitor, was selected as positive control.
(§5) The apparent permeability values (Papp) were evaluated in all experiments according to the following equation: Papp=dQ/dt/AC0 (1) where A means the insert area and C0 represents the initial concentration. dQ/dt represents the slope of the cumulative content transported during the time course of the period studied.
(§6) The efflux ratio (ER) was detected according to the ratio of Papp as the following equation: ER=Papp(B−A)/Papp(A−B) (2)

[6] = tested on: P-gp; assay: as above; details: dog
Procedure: as §3, §4, §5, §6

[7] = biological target: T1, P-gp (Homo sapiens, UniProt P08183); assay: in vitro; details: dog, MDCK-MDR1
Procedure: (§7) Briefly, MDCK-MDR1 cells (1×10^5/Well) were seeded onto 0.4 mm pore-size transwell inserts (Millipore, MA, United States) in 24-well plates.

[8] = biological target: T1, P-gp; details: Control: digoxin 5 µM alone, MDCK-MDR1 monolayers
Procedure: as §7

[9] = MDCK-MDR1, with verapamil 20 µM

T1 sequence (P08183 whole entry): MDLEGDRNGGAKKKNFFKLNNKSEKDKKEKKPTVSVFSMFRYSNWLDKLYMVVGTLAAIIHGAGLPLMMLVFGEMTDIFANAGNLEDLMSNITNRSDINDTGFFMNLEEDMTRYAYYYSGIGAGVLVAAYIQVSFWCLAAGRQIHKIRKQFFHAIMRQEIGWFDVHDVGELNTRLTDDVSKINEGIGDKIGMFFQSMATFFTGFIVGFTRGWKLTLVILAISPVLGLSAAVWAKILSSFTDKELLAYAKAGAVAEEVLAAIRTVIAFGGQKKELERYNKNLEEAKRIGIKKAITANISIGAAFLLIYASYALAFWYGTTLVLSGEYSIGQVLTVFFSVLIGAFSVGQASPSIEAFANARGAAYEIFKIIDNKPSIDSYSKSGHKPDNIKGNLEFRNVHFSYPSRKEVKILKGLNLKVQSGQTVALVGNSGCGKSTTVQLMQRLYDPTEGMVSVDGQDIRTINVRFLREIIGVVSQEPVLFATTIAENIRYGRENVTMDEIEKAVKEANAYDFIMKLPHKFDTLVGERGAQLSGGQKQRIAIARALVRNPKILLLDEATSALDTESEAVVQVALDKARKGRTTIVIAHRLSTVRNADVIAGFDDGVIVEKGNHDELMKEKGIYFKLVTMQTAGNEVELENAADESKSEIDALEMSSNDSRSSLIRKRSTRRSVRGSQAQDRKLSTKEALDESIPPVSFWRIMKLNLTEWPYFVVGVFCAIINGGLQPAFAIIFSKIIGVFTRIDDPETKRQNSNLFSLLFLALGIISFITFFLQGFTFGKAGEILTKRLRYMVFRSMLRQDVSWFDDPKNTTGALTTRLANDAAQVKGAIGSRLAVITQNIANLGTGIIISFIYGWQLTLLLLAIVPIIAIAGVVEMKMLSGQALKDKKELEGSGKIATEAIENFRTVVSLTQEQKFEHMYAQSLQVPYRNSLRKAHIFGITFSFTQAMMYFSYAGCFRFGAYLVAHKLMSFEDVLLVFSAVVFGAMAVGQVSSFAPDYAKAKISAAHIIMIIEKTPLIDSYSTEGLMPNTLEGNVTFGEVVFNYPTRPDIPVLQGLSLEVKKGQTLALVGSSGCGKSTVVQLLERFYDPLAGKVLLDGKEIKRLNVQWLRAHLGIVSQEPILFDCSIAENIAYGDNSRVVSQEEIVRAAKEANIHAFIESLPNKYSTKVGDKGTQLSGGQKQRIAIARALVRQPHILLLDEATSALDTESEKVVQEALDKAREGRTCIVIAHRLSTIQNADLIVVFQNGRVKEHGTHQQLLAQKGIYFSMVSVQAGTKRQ

COc1cccc2c1C(=O)c1c(O)c3c(c(O)c1C2=O)C[C@@](O)(C(=O)CO)C[C@@H]3O[C@H]1C[C@H](N)[C@H](O)[C@H](C)O1 [ADR, Adriamycin, reference compound]
Number of apoptosis cells, single agent ([1]; 3 µM alone): not obviously different with the control group

C=C(C)[C@@H]1CC[C@]2(C(=O)O)CC[C@]3(C)[C@H](CC[C@@H]4[C@@]5(C)CC[C@H](O)C(C)(C)[C@@H]5CC[C@]43C)[C@@H]12 [BA, Betulinic acid]
Effect on cytotoxicity of MCF-7/S cells to ADR or VCR [2]: neither 23-HBA nor BA showed significant effects on cytotoxicity | Accumulation of ADR/VCR in sensitive MCF-7 cells [3]: little impact was observed | Number of apoptosis cells, single agent ([1]; 20 µM alone): not obviously different with the control group | Cytotoxicity of combination exposure with ADR to MCF-7/ADR ([4]; 0–20 µM with ADR 3 µM): not observed | Cell toxicity as a single agent ([4]; 0–20 µM, single agent): no cell toxicity was detected | Folds (RE) ([5]; compound 0.2 µM): 0.66 | Folds (RE) ([5]; compound 2 µM): 0.75 | Folds (RE) ([5]; compound 20 µM): 0.78 | Papp A→B at 120 min, 0.2 µM ([6]; MDCK-MDR1): 61.2 ± 9.36 ×10⁻⁶ cm/s | Papp A→B at 120 min, 2 µM ([6]; MDCK-MDR1): 5.43 ± 0.5 ×10⁻⁶ cm/s | Papp A→B at 120 min, 20 µM ([6]; MDCK-MDR1): 0.72 ± 0.26 ×10⁻⁶ cm/s | Papp B→A at 120 min, 0.2 µM ([6]; MDCK-MDR1): 55.1 ± 9.8 ×10⁻⁶ cm/s | Papp B→A at 120 min, 2 µM ([6]; MDCK-MDR1): 6.51 ± 0.81 ×10⁻⁶ cm/s | Papp B→A at 120 min, 20 µM ([6]; MDCK-MDR1): 0.59 ± 0.14 ×10⁻⁶ cm/s | Papp A→B at 120 min, 0.2 µM [6, 9]: 105 ± 10.5 ×10⁻⁶ cm/s | Papp A→B at 120 min, 2 µM [6, 9]: 7.65 ± 1.53 ×10⁻⁶ cm/s | Papp A→B at 120 min, 20 µM [6, 9]: 0.26 ± 0.05 ×10⁻⁶ cm/s | Papp B→A at 120 min, 0.2 µM [6, 9]: 62.1 ± 4.71 ×10⁻⁶ cm/s | Papp B→A at 120 min, 2 µM [6, 9]: 6.9 ± 0.76 ×10⁻⁶ cm/s | Papp B→A at 120 min, 20 µM [6, 9]: 0.17 ± 0.05 ×10⁻⁶ cm/s

C[C@H]1O[C@@H](O[C@H]2[C@@H](O)C[C@H](O[C@H]3[C@@H](O)C[C@H](O[C@H]4CC[C@@]5(C)[C@H](CC[C@@H]6[C@@H]5C[C@@H](O)[C@]5(C)[C@@H](C7=CC(=O)OC7)CC[C@]65O)C4)O[C@@H]3C)O[C@@H]2C)C[C@H](O)[C@@H]1O [digoxin, reference compound]
Papp A→B at 120 min, 5 µM [7]: 0.31 ± 0.05 ×10⁻⁶ cm/s | RE (net efflux) of digoxin [8]: 36.56
